Measured values published in ChEMBL document CHEMBL1147627, “Synthesis of cinnamic acids and related isosteres as potent and selective alpha v beta 3 receptor antagonists” (Bioorg Med Chem Lett, 2004).

How the values were obtained:
Integrin alpha-V/beta-3 [1] = target: T1, Integrin alpha-V/beta-3 (Homo sapiens, UniProt P05106+P06756); assay: Binding affinity towards alpha V/beta3 receptor by solid-phase receptor binding assays (SPRA); format: protein-complex assay
Integrin alpha-V/beta-1 = Integrin alpha-V/beta-1 (Homo sapiens, UniProt P05556+P06756); assay: Binding affinity towards alpha V-beta1 receptor expressed in HEK293 cells; format: cell-based
Integrin alpha-V/beta-1, sequence (P05556 21-798 limits assumed): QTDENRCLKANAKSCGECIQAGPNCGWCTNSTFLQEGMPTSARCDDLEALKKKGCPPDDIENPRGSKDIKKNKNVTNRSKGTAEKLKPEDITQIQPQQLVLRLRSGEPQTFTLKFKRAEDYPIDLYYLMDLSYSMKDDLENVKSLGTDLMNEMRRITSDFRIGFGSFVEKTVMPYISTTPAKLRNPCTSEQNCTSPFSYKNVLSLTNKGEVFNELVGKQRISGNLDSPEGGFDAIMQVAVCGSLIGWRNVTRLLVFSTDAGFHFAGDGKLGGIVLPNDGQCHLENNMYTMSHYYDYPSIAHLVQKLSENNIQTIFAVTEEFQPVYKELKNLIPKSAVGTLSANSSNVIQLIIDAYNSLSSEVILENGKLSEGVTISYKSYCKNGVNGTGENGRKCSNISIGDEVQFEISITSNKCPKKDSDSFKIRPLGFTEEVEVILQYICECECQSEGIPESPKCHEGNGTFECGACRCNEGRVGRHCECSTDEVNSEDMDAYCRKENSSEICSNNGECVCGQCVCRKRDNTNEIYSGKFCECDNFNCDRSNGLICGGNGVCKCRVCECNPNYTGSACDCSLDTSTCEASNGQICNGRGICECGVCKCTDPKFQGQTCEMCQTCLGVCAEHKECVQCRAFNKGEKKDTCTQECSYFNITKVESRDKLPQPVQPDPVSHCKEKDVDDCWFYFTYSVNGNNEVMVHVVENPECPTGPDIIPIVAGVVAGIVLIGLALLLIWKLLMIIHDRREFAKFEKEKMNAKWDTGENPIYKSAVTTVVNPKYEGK
Integrin alpha-V/beta-1, sequence (P06756 31-889 limits assumed): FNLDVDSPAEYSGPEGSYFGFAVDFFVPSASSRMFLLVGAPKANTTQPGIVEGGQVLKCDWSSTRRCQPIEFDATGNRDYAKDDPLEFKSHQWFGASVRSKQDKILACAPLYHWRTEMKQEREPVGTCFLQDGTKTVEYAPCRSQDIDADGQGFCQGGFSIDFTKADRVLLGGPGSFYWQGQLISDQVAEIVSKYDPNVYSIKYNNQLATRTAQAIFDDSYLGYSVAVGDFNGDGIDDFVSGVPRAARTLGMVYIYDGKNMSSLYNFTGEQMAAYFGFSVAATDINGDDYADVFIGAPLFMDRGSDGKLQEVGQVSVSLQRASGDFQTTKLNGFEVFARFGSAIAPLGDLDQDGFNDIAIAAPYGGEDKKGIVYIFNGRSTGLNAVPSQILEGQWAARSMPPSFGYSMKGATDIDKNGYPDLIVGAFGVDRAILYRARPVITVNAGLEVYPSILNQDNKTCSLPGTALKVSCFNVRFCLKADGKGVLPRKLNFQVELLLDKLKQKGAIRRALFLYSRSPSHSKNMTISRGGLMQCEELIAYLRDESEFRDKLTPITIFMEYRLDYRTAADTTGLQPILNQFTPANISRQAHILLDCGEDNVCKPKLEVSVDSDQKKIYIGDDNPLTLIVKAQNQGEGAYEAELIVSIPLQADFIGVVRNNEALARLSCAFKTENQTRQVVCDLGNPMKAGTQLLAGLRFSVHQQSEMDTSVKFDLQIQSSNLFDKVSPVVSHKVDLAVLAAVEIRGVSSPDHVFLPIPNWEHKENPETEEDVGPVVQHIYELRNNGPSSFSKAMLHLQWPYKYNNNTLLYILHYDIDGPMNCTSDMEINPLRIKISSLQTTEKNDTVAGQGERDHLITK
Integrin alpha-V/beta-1, sequence (P06756 891-1048 limits assumed): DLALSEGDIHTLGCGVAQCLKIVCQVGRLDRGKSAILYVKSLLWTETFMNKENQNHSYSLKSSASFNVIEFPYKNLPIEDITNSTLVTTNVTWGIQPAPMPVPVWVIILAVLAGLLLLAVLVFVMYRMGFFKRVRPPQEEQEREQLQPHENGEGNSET

Integrin alpha-V/beta-3 [2] = target: T1, Integrin alpha-V/beta-3; assay: Binding affinity towards alpha V-beta3 receptor expressed in HEK293 cells; format: cell-based
Integrin alpha-V/beta-5 = Integrin alpha-V/beta-5 (Homo sapiens, UniProt P06756+P18084); assay: Binding affinity towards alpha V-beta5 receptor expressed in HEK293 cells; format: cell-based
Integrin alpha-V/beta-5, sequence (P06756 31-889 limits assumed): as the sequence (P06756 31-889 limits assumed) above
Integrin alpha-V/beta-5, sequence (P06756 891-1048 limits assumed): as the sequence (P06756 891-1048 limits assumed) above
Integrin alpha-V/beta-5, sequence (P18084 24-799 limits assumed): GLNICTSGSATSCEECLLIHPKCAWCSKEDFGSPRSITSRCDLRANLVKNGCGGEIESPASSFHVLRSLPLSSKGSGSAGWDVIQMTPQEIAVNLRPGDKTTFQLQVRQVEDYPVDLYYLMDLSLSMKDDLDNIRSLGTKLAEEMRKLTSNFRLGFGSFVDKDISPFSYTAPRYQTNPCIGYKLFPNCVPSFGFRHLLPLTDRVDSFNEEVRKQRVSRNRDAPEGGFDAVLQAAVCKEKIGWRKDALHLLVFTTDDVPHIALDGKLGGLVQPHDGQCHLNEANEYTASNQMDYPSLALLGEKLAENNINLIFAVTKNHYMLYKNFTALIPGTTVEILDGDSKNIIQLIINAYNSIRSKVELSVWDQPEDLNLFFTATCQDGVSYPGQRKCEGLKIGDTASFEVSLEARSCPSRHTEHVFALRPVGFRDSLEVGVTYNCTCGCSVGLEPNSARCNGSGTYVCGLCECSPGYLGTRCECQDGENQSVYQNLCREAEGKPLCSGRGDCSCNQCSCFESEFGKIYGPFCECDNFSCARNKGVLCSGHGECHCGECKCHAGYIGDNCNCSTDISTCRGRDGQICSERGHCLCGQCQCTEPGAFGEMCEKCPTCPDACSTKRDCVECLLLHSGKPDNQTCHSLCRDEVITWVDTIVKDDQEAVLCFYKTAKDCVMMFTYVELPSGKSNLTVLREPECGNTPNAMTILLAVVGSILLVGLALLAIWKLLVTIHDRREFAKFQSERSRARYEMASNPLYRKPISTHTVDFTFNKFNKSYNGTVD

[3] = target: Integrin alpha-IIb/beta-3 (Homo sapiens, UniProt P05106+P08514); assay: Binding affinity towards alpha IIb/beta3 integrin by solid-phase receptor binding assay (SPRA); format: protein-complex assay
Integrin alpha-IIb/beta-3, sequence (P05106 27-788 limits assumed): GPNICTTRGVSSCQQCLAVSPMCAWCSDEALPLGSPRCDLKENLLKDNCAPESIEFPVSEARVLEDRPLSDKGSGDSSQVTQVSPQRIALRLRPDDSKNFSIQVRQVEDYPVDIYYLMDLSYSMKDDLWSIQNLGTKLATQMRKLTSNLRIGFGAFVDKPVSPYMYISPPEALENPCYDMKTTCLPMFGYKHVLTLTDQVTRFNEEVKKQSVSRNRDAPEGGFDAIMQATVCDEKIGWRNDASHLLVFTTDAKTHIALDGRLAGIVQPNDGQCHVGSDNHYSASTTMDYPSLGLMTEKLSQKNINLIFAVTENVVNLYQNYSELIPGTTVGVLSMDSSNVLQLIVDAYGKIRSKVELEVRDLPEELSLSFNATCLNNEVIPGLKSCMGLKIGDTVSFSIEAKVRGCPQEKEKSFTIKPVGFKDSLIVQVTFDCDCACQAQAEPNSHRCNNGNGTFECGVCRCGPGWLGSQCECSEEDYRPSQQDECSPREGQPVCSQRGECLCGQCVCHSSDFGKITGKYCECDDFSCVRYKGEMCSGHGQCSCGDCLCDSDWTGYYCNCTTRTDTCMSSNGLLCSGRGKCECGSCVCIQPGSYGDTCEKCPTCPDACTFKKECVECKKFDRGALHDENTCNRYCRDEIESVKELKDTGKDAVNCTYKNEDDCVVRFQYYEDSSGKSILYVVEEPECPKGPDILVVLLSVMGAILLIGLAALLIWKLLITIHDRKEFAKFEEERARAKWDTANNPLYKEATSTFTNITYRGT
Integrin alpha-IIb/beta-3, sequence (P08514 32-887 limits assumed): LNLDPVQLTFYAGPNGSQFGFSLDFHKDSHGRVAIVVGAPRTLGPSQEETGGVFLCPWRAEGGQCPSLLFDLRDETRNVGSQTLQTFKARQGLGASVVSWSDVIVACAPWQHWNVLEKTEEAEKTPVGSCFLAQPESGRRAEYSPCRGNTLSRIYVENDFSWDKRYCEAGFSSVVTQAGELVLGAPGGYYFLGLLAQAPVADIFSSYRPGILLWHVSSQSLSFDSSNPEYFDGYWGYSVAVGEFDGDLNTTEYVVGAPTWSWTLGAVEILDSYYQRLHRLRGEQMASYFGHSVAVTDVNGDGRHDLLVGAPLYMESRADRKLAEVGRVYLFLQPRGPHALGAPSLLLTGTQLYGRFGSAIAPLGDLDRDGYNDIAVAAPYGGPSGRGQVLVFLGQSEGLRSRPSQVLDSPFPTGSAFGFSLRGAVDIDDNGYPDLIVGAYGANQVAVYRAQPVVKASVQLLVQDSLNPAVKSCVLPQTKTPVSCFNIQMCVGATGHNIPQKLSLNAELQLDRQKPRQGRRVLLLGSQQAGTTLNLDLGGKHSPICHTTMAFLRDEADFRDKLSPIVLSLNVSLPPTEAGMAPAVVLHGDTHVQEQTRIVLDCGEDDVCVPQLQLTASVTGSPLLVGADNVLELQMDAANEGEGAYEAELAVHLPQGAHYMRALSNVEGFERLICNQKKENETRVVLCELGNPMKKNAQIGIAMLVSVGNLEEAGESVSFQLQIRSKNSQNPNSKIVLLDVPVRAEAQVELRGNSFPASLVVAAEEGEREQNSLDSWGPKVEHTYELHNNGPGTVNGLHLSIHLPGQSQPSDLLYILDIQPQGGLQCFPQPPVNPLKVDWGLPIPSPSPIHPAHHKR
Integrin alpha-IIb/beta-3, sequence (P08514 891-1039 limits assumed): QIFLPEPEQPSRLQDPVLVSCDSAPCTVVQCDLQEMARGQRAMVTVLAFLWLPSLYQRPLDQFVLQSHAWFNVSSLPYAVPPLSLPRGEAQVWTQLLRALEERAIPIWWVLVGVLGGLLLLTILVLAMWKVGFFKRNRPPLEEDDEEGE

T1 sequence (P05106 27-788 limits assumed): as the sequence (P05106 27-788 limits assumed) above
T1 sequence (P06756 31-889 limits assumed): as the sequence (P06756 31-889 limits assumed) above
T1 sequence (P06756 891-1048 limits assumed): as the sequence (P06756 891-1048 limits assumed) above

Row | Compound | IC50 (Integrin alpha-V/beta-3 [1]) [nM] | IC50 (Integrin alpha-V/beta-1) [nM] | IC50 (Integrin alpha-V/beta-3 [2]) [nM] | IC50 (Integrin alpha-V/beta-5) [nM] | IC50 [3] [nM]
1 | N=C(N)Nc1cccc(C(=O)Nc2ccc(/C=C/C(=O)O)c(C(=O)O)c2)c1 | 1.2 | – | – | – | –
2 | CC(C)(C)OC(=O)NC(Cc1ccc(NC(=O)c2cccc(N=C(N)N)c2)cc1)C(=O)O (stereo not drawn) | – | 6.7 | 2.5 | 1 | –
3 | COc1cc(NC(=O)c2cccc(NC3=NCCCN3)c2)ccc1OCC(=O)O | 0.43 | 82 | 1.7 | 29 | –
4 | N=C(N)Nc1cccc(C(=O)Nc2cc(Cl)c(/C=C/C(=O)O)c(Cl)c2)c1 | – | – | – | – | 25000
5 | N=C(N)Nc1cccc(C(=O)Nc2ccc(/C=C/C(=O)O)cc2F)c1 | – | 426 | 9.6 | 45 | –
6 | COc1cc(NC(=O)c2cccc(NC(=N)N)c2)ccc1CC(NC(=O)OC(C)C)C(=O)O (stereo not drawn) | 1.1 | 1.1 | 0.32 | 0.38 | –
7 | COc1cc(NC(=O)c2cccc(N=C(N)N)c2)ccc1OCC(=O)O | 3.2 | 222 | 4.3 | 102 | –
8 | O=C(O)CCc1ccc(NC(=O)c2cccc(NC3=NCCCN3)c2)cc1C(=O)O | 6.1 | – | – | – | –
9 | N=C(N)Nc1cccc(C(=O)Nc2ccc(OCC(=O)O)cc2)c1 | – | 351 | 11.9 | 144 | –
10 | COc1cc(/C=C/C(=O)O)ccc1NC(=O)c1cccc(NC(=N)N)c1 | 10.3 | – | – | – | 38
11 | O=C(O)/C=C/c1ccc(NC(=O)c2cccc(NC3=NCCCN3)c2)cc1Cl | 3.9 | 507 | 3.8 | 26 | 641
12 | N=C(N)Nc1cccc(C(=O)Nc2ccc(CC(NS(=O)(=O)c3ccccc3)C(=O)O)cc2)c1 (stereo not drawn) | – | 18.3 | 0.2 | 8.1 | –
13 | CCc1cc(/C=C/C(=O)O)ccc1NC(=O)c1cccc(NC(=N)N)c1 | 3 | – | – | – | –
14 | NC(N)=Nc1cccc(C(=O)Nc2ccc(CCC(=O)O)cc2)c1 | – | 758 | 10.9 | 135 | –
15 | CS(=O)(=O)NC(Cc1ccc(NC(=O)c2cccc(N=C(N)N)c2)cc1)C(=O)O (stereo not drawn) | – | 29 | 0.98 | 3.1 | –
16 | N=C(N)Nc1cccc(C(=O)Nc2ccc(/C=C/C(=O)O)cc2)c1 | – | 109 | 13.1 | 39 | –
17 | N=C(N)Nc1cccc(C(=O)Nc2ccc(/C=C/C(=O)O)c(Cl)c2)c1 | 23 | – | – | – | 45
18 | COc1cc(NC(=O)c2cccc(NC3=NCCCN3)c2)ccc1CC(NC(=O)OC(C)C)C(=O)O (stereo not drawn) | 0.16 | 0.68 | 0.35 | 0.41 | 1000

Row | Compound | IC50 (Integrin alpha-V/beta-3 [1]) [nM] | IC50 (Integrin alpha-V/beta-1) [nM] | IC50 (Integrin alpha-V/beta-3 [2]) [nM] | IC50 (Integrin alpha-V/beta-5) [nM] | IC50 [3] [nM]
19 | O=C(O)/C=C/c1ccc(NC(=O)c2cccc(NC3=NCCCN3)c2)c(Cl)c1 | – | 85 | 1.7 | 13 | –
20 | CC(=O)NC(Cc1ccc(NC(=O)c2cccc(N=C(N)N)c2)cc1)C(=O)O (stereo not drawn) | – | 16 | 2.6 | 40 | –
21 | COc1cc(NC(=O)c2cccc(NC3=NCCCN3)c2)ccc1CCC(=O)O | 5.8 | 162 | 5.6 | 16.6 | –
22 | N=C(N)Nc1cccc(C(=O)Nc2ccc(C3CC3C(=O)O)cc2)c1 (stereo not drawn) | 31 | 339 | 65 | 149 | –
23 | Cc1cc(/C=C/C(=O)O)cc(C)c1NC(=O)c1cccc(NC2=NCCN2)c1 | – | 264 | 3 | 29 | –
24 | CC(C)OC(=O)NC(Cc1ccc(NC(=O)c2cccc(NC3=NC(=O)CN3)c2)cc1)C(=O)O (stereo not drawn) | – | 17.7 | 0.94 | 0.89 | –
25 | O=C(Nc1ccc(CC(NS(=O)(=O)c2ccccc2)C(=O)O)cc1)c1cccc(NC2=NCCCN2)c1 (stereo not drawn) | 0.11 | 10.4 | 0.12 | 0.96 | 6
26 | O=C(Nc1ccc(CC(NS(=O)(=O)c2ccccc2)C(=O)O)cc1)c1cccc(NC2=NCCN2)c1 (stereo not drawn) | 0.27 | – | – | – | 12.5
27 | O=C(Nc1ccc(C2CC2C(=O)O)cc1)c1cccc(NC2=NCCCN2)c1 (stereo not drawn) | – | 320 | 40 | 69 | –
28 | COc1cc(NC(=O)c2cccc(NC3=NCCCN3)c2)ccc1/C=C/C(=O)O | 2.2 | – | – | – | 661
29 | CC(C)(C)NC(=O)NC(Cc1ccc(NC(=O)c2cccc(N=C(N)N)c2)cc1)C(=O)O (stereo not drawn) | 3.2 | 4.8 | 2.9 | 3 | –
30 | O=C(O)/C=C/c1ccc(NC(=O)c2cccc(NC3=NCCCN3)c2)cc1 | 2 | 219 | 1.8 | 7.6 | 528
31 | Cc1cc(/C=C/C(=O)O)ccc1NC(=O)c1cccc(NC2=NCCCN2)c1 | – | 60 | 1.7 | 9.6 | –
32 | Cc1cc(NC(=O)c2cccc(NC(=N)N)c2)ccc1/C=C/C(=O)O | – | 505 | 19.4 | 49 | –
33 | CC(C)OC(=O)NC(Cc1ccc(NC(=O)c2cccc(N=C(N)N)c2)cc1)C(=O)O (stereo not drawn) | – | 0.47 | 2.6 | 0.76 | 22
34 | N=C(N)Nc1cccc(C(=O)Nc2ccc(/C=C/C(=O)O)cc2Cl)c1 | – | 426 | 5.9 | 60 | –
35 | Cc1cc(/C=C/C(=O)O)cc(C)c1NC(=O)c1cccc(NC(=N)N)c1 | – | 2070 | 21 | 116 | –
